Reference: paper PMC8548355 (Medicinal Chemistry Research, 2021)
In brackets after ≈: the same amount, converted by molar mass. Each block holds one compound with its values, some of them ahead of it.

How the values were obtained:
[1] = tested on: E. coli ATCC 25922; experiment: MIC by broth microdilution against E. coli ATCC 25922; assay type: cell-based; settings: Escherichia coli, ATCC25922, read-out: MIC against E. coli ATCC 25922
[2] = tested on: S. aureus ATCC 29213; experiment: MIC by broth microdilution against S. aureus ATCC 29213; assay type: cell-based, Staphylococcus aureus; settings: for MIC: Staphylococcus aureus, ATCC29213, read-out: MIC against S. aureus ATCC 29213, broth microdilution, 37 °C, 16–18 h
[3] = tested on: K. pneumoniae BAA 1705; experiment: MIC by broth microdilution against K. pneumoniae BAA 1705; assay type: cell-based; settings: Klebsiella pneumoniae, BAA1705, read-out: MIC against K. pneumoniae BAA 1705
[4] = tested on: A. baumannii BAA 1605; experiment: MIC by broth microdilution against A. baumannii BAA 1605; assay type: cell-based; settings: Acinetobacter baumannii, BAA1605, read-out: MIC against A. baumannii BAA 1605
[5] = tested on: MRSA NRS 10100; experiment: MIC against clinical MRSA isolate NRS 10100; assay type: cell-based; settings: Staphylococcus aureus, MRSA|NRS10100, read-out: MIC against MRSA NRS 10100
[6] = tested on: MRSA NRS 10119; experiment: MIC against clinical MRSA isolate NRS 10119; assay type: cell-based; settings: Staphylococcus aureus, MRSA|NRS10119, read-out: MIC against MRSA NRS 10119
[7] = tested on: MRSA NRS 10129; experiment: MIC against clinical MRSA isolate NRS 10129; assay type: cell-based; settings: Staphylococcus aureus, MRSA|NRS10129, read-out: MIC against MRSA NRS 10129
[8] = tested on: MRSA NRS 10186; experiment: MIC against clinical MRSA isolate NRS 10186; assay type: cell-based; settings: Staphylococcus aureus, MRSA|NRS10186, read-out: MIC against MRSA NRS 10186
[9] = tested on: MRSA NRS 10191; experiment: MIC against clinical MRSA isolate NRS 10191; assay type: cell-based; settings: Staphylococcus aureus, MRSA|NRS10191, read-out: MIC against MRSA NRS 10191
[10] = tested on: MRSA NRS 10192; experiment: MIC against clinical MRSA isolate NRS 10192; assay type: cell-based; settings: Staphylococcus aureus, MRSA|NRS10192, read-out: MIC against MRSA NRS 10192
[11] = tested on: MRSA NRS 10193; experiment: MIC against clinical MRSA isolate NRS 10193; assay type: cell-based; settings: Staphylococcus aureus, MRSA|NRS10193, read-out: MIC against MRSA NRS 10193
[12] = tested on: MRSA NRS 10194; experiment: MIC against clinical MRSA isolate NRS 10194; assay type: cell-based; settings: Staphylococcus aureus, MRSA|NRS10194, read-out: MIC against MRSA NRS 10194
[13] = tested on: MRSA NRS 10198; experiment: MIC against clinical MRSA isolate NRS 10198; assay type: cell-based; settings: Staphylococcus aureus, MRSA|NRS10198, read-out: MIC against MRSA NRS 10198
[14] = tested on: VRSA VRS 1; experiment: MIC against clinical VRSA isolate VRS 1; assay type: cell-based; settings: Staphylococcus aureus, read-out: MIC against VRSA VRS 1
[15] = tested on: VRSA VRS 4; experiment: MIC against clinical VRSA isolate VRS 4; assay type: cell-based; settings: Staphylococcus aureus, read-out: MIC against VRSA VRS 4
[16] = tested on: VRSA VRS 12; experiment: MIC against clinical VRSA isolate VRS 12; assay type: cell-based; settings: Staphylococcus aureus, read-out: MIC against VRSA VRS 12
[17] = tested on: clinical MDR S. aureus isolates (MRSA and VRSA); experiment: MIC against clinical MDR S. aureus isolates, whole panel; assay type: cell-based, Staphylococcus aureus; settings: nine MRSA and three VRSA strains
[18] = tested on: S. aureus ATCC 29213; experiment: Drug interaction of 22 with FDA-approved drugs, checkerboard method; assay type: cell-based, Staphylococcus aureus; settings: for MIC of drug in the presence of “22” “B”: S. aureus ATCC 29213, checkerboard, in combination with 22; for MIC: Staphylococcus aureus, ATCC29213, 24 h, read-out: MIC (drug alone); for Inference (drug interaction): combination of 22 with the drug, S. aureus ATCC 29213

MIC [1]: > 64 µg/mL
MIC [2]: 32 µg/mL (≈ 116 µM)
MIC [3]: > 64 µg/mL
MIC [4]: > 64 µg/mL
Structure (SMILES): O=C(Nc1ccc(F)cc1[N+](=O)[O-])c1ccccc1O [Compound 15, N-(4ʹ-fluoro-2ʹ-nitrophenyl)-2-hydroxybenzamide]

MIC [1]: > 64 µg/mL
MIC [2]: 3.88 µg/mL (≈ 12.5 µM)
MIC against S. aureus ATCC 29213 ([2]; broth microdilution, 37 °C, 16–18 h): 4 µg/mL (≈ 12.9 µM)
MIC [3]: > 64 µg/mL
MIC [4]: > 64 µg/mL
Structure (SMILES): O=C(Nc1ccc(F)cc1[N+](=O)[O-])c1cc(Cl)ccc1O [Compound 16, 5-Chloro-N-(4ʹ-fluoro-2ʹ-nitrophenyl)-2-hydroxybenzamide]

MIC [2]: 2 µg/mL (≈ 7.24 µM)
Structure (SMILES): O=C(Nc1ccc([N+](=O)[O-])cc1F)c1ccccc1O [Compound 17, N-(2ʹ-fluoro-4ʹ-nitrophenyl)-2-hydroxybenzamide]

MIC [1]: > 64 µg/mL
MIC [2]: 1 µg/mL (≈ 3.22 µM)
MIC [3]: > 64 µg/mL
MIC [4]: > 64 µg/mL
Structure (SMILES): O=C(Nc1ccc([N+](=O)[O-])cc1F)c1cc(Cl)ccc1O [Compound 18, 5-Chloro-N-(2ʹ-fluoro-4ʹ-nitrophenyl)-2-hydroxybenzamide]

MIC [1]: > 64 µg/mL
MIC [2]: 1 µg/mL (≈ 3.17 µM)
MIC [3]: > 64 µg/mL
MIC [4]: > 64 µg/mL
Structure (SMILES): O=C(Nc1ccc(Cl)c(C(F)(F)F)c1)c1ccccc1O [Compound 19, N-(4ʹ-chloro-3ʹ-(trifluoromethyl)phenyl)-2-hydroxybenzamide]

Structure (SMILES): O=C(Nc1ccc(Cl)c(C(F)(F)F)c1)c1cc(Cl)ccc1O [Compound 20, 5-Chloro-N-(4ʹ-chloro-3ʹ-(trifluoromethyl)phenyl)-2-hydroxybenzamide]
MIC [1]: > 64 µg/mL
MIC [2]: 0.25 µg/mL (≈ 0.714 µM)
MIC [3]: > 64 µg/mL
MIC [4]: > 64 µg/mL
MIC [5]: 0.5 µg/mL (≈ 1.43 µM)
MIC [6]: 0.5 µg/mL (≈ 1.43 µM)
MIC [7]: 0.5 µg/mL (≈ 1.43 µM)
MIC [8]: 0.5 µg/mL (≈ 1.43 µM)
MIC [9]: 0.5 µg/mL (≈ 1.43 µM)
MIC [10]: 0.5 µg/mL (≈ 1.43 µM)
MIC [11]: 0.5 µg/mL (≈ 1.43 µM)
MIC [12]: 0.5 µg/mL (≈ 1.43 µM)
MIC [13]: 0.5 µg/mL (≈ 1.43 µM)
MIC [14]: 0.5 µg/mL (≈ 1.43 µM)
MIC [15]: 0.25 µg/mL (≈ 0.714 µM)
MIC [16]: 0.5 µg/mL (≈ 1.43 µM)
MIC against MRSA and VRSA isolates (range over the panel) [17]: 0.25 to 0.5 µg/mL

Structure (SMILES): O=C(Nc1ccc(Cl)cc1)c1cc(Cl)ccc1O [Compound 24, 5-Chloro-N-(4ʹ-chlorophenyl)-2-hydroxybenzamide]
MIC [1]: > 64 µg/mL
MIC [2]: 0.5 µg/mL (≈ 1.77 µM)
MIC [3]: > 64 µg/mL
MIC [4]: > 64 µg/mL
MIC [5]: 0.5 µg/mL (≈ 1.77 µM)
MIC [6]: 0.25 µg/mL (≈ 0.886 µM)
MIC [7]: 0.5 µg/mL (≈ 1.77 µM)
MIC [8]: 0.5 µg/mL (≈ 1.77 µM)
MIC [9]: 0.5 µg/mL (≈ 1.77 µM)
MIC [10]: 0.5 µg/mL (≈ 1.77 µM)
MIC [11]: 0.5 µg/mL (≈ 1.77 µM)
MIC [12]: 0.5 µg/mL (≈ 1.77 µM)
MIC [13]: 0.5 µg/mL (≈ 1.77 µM)
MIC [14]: 0.5 µg/mL (≈ 1.77 µM)
MIC [15]: 0.5 µg/mL (≈ 1.77 µM)
MIC [16]: 0.5 µg/mL (≈ 1.77 µM)
MIC against MRSA and VRSA isolates (range over the panel) [17]: 0.25 to 0.5 µg/mL

MIC of drug in the presence of “22” “B” [18]: 1 µg/mL
MIC [18]: 1 µg/mL
Structure (SMILES): CCCCCCCCCC(=O)N[C@@H](Cc1c[nH]c2ccccc12)C(=O)N[C@H](CC(N)=O)C(=O)N[C@@H](CC(=O)O)C(=O)N[C@@H]1C(=O)NCC(=O)N[C@@H](CCCN)C(=O)N[C@@H](CC(=O)O)C(=O)N[C@H](C)C(=O)N[C@@H](CC(=O)O)C(=O)NCC(=O)N[C@H](CO)C(=O)N[C@@H]([C@H](C)CC(=O)O)C(=O)N[C@@H](CC(=O)c2ccccc2N)C(=O)O[C@@H]1C [Daptomycin]
Inference (drug interaction) [18]: No interaction

MIC of drug in the presence of “22” “B” [18]: 0.25 µg/mL
MIC [18]: 0.5 µg/mL
Structure (SMILES): CNC(C)C1CCC(N)C(OC2C(N)CC(N)C(OC3OCC(C)(O)C(NC)C3O)C2O)O1 (centres unmarked) [Gentamicin]
Inference (drug interaction) [18]: No interaction

MIC of drug in the presence of “22” “B” [18]: 0.5 µg/mL
MIC [18]: 2 µg/mL
Structure (SMILES): CC(=O)NC[C@H]1CN(c2ccc(N3CCOCC3)c(F)c2)C(=O)O1 [Linezolid]
Inference (drug interaction) [18]: No interaction

Structure (SMILES): C[C@@H](O)[C@H]1C(=O)N2C(C(=O)O)=C(S[C@@H]3CN[C@H](C(=O)N(C)C)C3)[C@H](C)[C@H]12 [Meropenem, reference compound]
MIC [5]: 64 µg/mL (≈ 167 µM)
MIC [6]: > 64 µg/mL
MIC [7]: 16 µg/mL (≈ 41.7 µM)
MIC [8]: 16 µg/mL (≈ 41.7 µM)
MIC [9]: > 64 µg/mL
MIC [10]: 32 µg/mL (≈ 83.4 µM)
MIC [11]: > 64 µg/mL
MIC [12]: 4 µg/mL (≈ 10.4 µM)
MIC [13]: > 64 µg/mL
MIC [14]: > 64 µg/mL
MIC [15]: > 64 µg/mL
MIC [16]: 16 µg/mL (≈ 41.7 µM)
MIC of drug in the presence of “22” “B” [18]: 0.5 µg/mL
MIC [18]: 0.5 µg/mL
Inference (drug interaction) [18]: No interaction

Structure (SMILES): COc1cccc(OC)c1C(=O)N[C@@H]1C(=O)N2[C@@H]1SC(C)(C)[C@@H]2C(=O)O [Methicillin, reference compound]
MIC [5]: > 64 µg/mL
MIC [6]: > 64 µg/mL
MIC [7]: 32 µg/mL (≈ 84.1 µM)
MIC [8]: 64 µg/mL (≈ 168 µM)
MIC [9]: > 64 µg/mL
MIC [10]: > 64 µg/mL
MIC [11]: > 64 µg/mL
MIC [12]: 32 µg/mL (≈ 84.1 µM)
MIC [13]: > 64 µg/mL
MIC [14]: > 64 µg/mL
MIC [15]: > 64 µg/mL
MIC [16]: > 64 µg/mL

MIC of drug in the presence of “22” “B” [18]: 0.125 µg/mL
MIC [18]: 0.125 µg/mL
Structure (SMILES): CN(C)c1ccc(O)c2c1C[C@H]1C[C@H]3[C@H](N(C)C)C(O)=C(C(N)=O)C(=O)[C@@]3(O)C(O)=C1C2=O [Minocycline]
Inference (drug interaction) [18]: No interaction

Structure (SMILES): CO[C@H]1/C=C/O[C@@]2(C)Oc3c(C)c(O)c4c(O)c(c(/C=N/N5CCN(C)CC5)c(O)c4c3C2=O)NC(=O)/C(C)=C\C=C\[C@H](C)[C@H](O)[C@@H](C)[C@@H](O)[C@@H](C)[C@H](OC(C)=O)[C@@H]1C [Rifampicin]
Inference (drug interaction) [18]: No interaction
